Test results from publication PMC4389225, “Triaminopyrimidine is a fast-killing and long-acting antimalarial clinical candidate” (Nature Communications, 2015).
Values after ≈ are worked out from the molar mass of the structure shown.

Columns and labels:
[1] = Solubility
[2] = Acute anaesthetised guinea pig CVS model, compound 2; type: in vivo
Procedure: Protein binding (human free)
Guinea Pig Study: Anaesthetised guinea pigs (n=2) were treated with compound 2 at 5 mg/kg followed by 15 mg/kg (AstraZeneca, Alderley Park, UK) using methodology based on that used to assess compound 12 at Biotrial, France. Haemodynamic and electrocardiography […]
achieved with compound 2 in an early mouse model once exposures reached approximately 9 μM Cmax (total). Consequently, compound 2 was classified as having no therapeutic window preclinically in this model. […]

[3] = PK in the blood of infected Pf/SCID mice; type: in vivo, mouse
Procedure: Peripheral blood samples (25 μl) were taken at different times (0.25, 0.5, 1, 2, 4, 6, 8 and 23 h), mixed with 25 μl of H2O Mili-Q and immediately frozen on dry ice. The frozen samples were stored at −80 °C until analysis. Vehicle-treated mice experienced the same blood-sampling regimen. Blood samples were processed by liquid–liquid extraction by mixing 10 μl diluted blood with 180 μl AcN:MeOH (80:20; v-v) mixture. Quantitative analysis by Liquid chromatography-tandem mass spectrometry (LC-MS/MS) was performed using UPLC (Waters) and Sciex API4000. The lower limit of quantification in this assay was 0.005 μg ml^−1.

[4] = Plasma protein binding, mouse
[5] = 3-day rat toxicity (tolerability) study of compound 12; type: in vivo; details: for Summary of clinical signs and effects: NOEL = no observed effect level
Procedure: Two groups of male rats (n=3, Han Wistar) were obtained from Charles River Laboratories, UK. Animals were group housed for ~1 week before the initiation of dosing. On the first day of dosing, rats were ~11 weeks of age and weighed 250–300 g and received compound 12 via oral gavage at dose levels of 75 or 150 mg kg^−1 for three consecutive days and necropsied 24 h after the final dose. Vehicle: 1% pluronic F127; dose volume: 10 ml kg^−1. In addition to regular monitoring of the animals' general condition, toxicokinetic profiles were obtained on day 1 and clinical chemistry, haematology and histopathology were assessed from all animals on day 4. Female animals were not included in the study as sex differences in either exposure or tolerability were not expected and control animals were excluded from this preliminary study design to reduce animal usage. Body weights were collected during acclimation and before each dose. Food and water consumption were available ad libitum but not recorded.
Toxicokinetic profiles were obtained on day 1 from all animals (time points: 0.5, 1, 2, 4, 6 and 24 h post dose) via microsample tail prick (32 μl blood) and were analysed using a qualified analytical procedure. Clinical pathology blood samples were taken at necropsy (24 h after third and final dose) from all animals, and analysed following a routine toxicological parameter list. Urinalysis was not performed.

[6] = tested on: Dd2 DHODH DSM265; experiment: [3H]-hypoxanthine incorporation assay, Dd2 DHODH DSM265 resistant; type: cell-based; details: Plasmodium falciparum
Procedure: Supplementary Table 3: Compound 9 and 12 retain their activity against Pf strains harbouring mutations to novel antimalarial agents in clinical development. Compound 9 and 12 were tested for their antiplasmodial activity against a panel of Pf strains known to harbour mutations conferring resistance to novel agents under clinical development. Parasite growth inhibition is measured using the [3H]-hypoxanthine incorporation assay. IC50s are established for each strain (n ≥2) and compared to the IC50 of Dd2 (standard pan-resistant […]

[7] = tested on: Dd2; experiment: [3H]-hypoxanthine incorporation assay, Dd2; type: cell-based, Plasmodium falciparum; details: Plasmodium falciparum, DD2
Procedure: 9 and 12 were tested for their antiplasmodial activity against a panel of Pf strains known to harbour mutations conferring resistance to novel agents under clinical development. Parasite growth inhibition is measured using the [3H]-hypoxanthine incorporation assay. IC50s are established for each strain (n ≥2) and compared to the IC50 of Dd2 (standard pan-resistant

[8] = tested on: Dd2-6R F2 C5; experiment: SYBR green growth assay, Dd2-6R F2 C5; details: Plasmodium falciparum
Procedure: Assays were carried out in 384-well format with three technical replicates within an assay day and biological replicates carried out on three different assay days to assign a final EC50.
The drug was then washed off and the parasites were allowed to recover in normal growth media.

[9] = tested on: Pf; experiment: Predicted human efficacy (parasite load reduction); design: species or system Plasmodium falciparum
Procedure: The predicted human exposure after a single dose of 260 mg is likely to sustain the maximum kill rate observed in the Pf/SCID model for 4–6 days to achieve >3-log reduction in parasitemia (Supplementary Note 6, Supplementary Figs 12 and 13, and Supplementary Table 12). A patient with clinical symptoms of uncomplicated malaria may have 1–2% parasitemia in blood, which is equivalent to 11–12 log parasites in total, assuming 13 log erythrocytes in human blood. At a dose of 260 mg, compound 12 is predicted to maintain a constant kill rate over two life cycles (96 h) of the parasite to yield a 3 to 4-log reduction in the total parasite load. Therefore, a single-dose treatment with~500 mg might result in >8-log reduction in the parasite load. In a combination-based malaria therapy that is clinically practiced, an additive or synergistic effect of the partner drug with compound 12 is predicted to cure patients following a single-dose treatment.
Prediction of human PK profile. The predicted human CL and Vss estimates could be used for predicting human PK with a one compartment distribution. However, rat and dog IVPK profiles indicated a two compartment distribution. Parameters for the two compartment distribution in human were predicted by Wajima transformation8 of rat and dog IVPK […]
CLd, Vt and Vc estimates, assuming similar Ka (0.3/h) and F (0.7) as observed in rats (supplementary Fig. 12 ).
Predicted human PK parameters are shown in supplementary Table 12. Human CL estimates predicted by the FCIM method and IVIVE (3.8 ml/min/kg) were identical. The […]
Human efficacy was predicted after treatment of 70 kg adult with a single 260 mg dose, assuming 2% parasitemia at the onset of treatment and assuming one compartment distribution of 12 in humans (supplementary Fig. 13). Similar efficacy was predicted if 12 was distributed in two compartments.

[10] = Plasma protein binding, guinea pig

In the case of `Cc1cc(Nc2ncc(N3CCN(C)CC3)c(N3CCCC3)n2)ccn1` [compound 2], the solubility [1] is reported as 830 µM (≈ 293 µg/mL), the “A - Plasma Cmax Total” value ([2]; 5 mg/kg i.v.) is reported as 4530 nM and the “Safety Margin (A / B)” value ([2]; 5 mg/kg i.v.) is reported as “None”. For the same compound, the “Summary of clinical signs and effects” value ([2]; 5 mg/kg i.v.) was “Haemodynamic Effects”, the “A - Plasma Cmax Total” value ([2]; 15 mg/kg i.v.) was 20420 nM and the “Safety Margin (A / B)” value ([2]; 15 mg/kg i.v.) was “None”. For the same compound, the “Summary of clinical signs and effects” value ([2]; 15 mg/kg i.v.) was “Haemodynamic & ECG Effects”.

For `Cc1nc(Nc2ncc(N3CCN(C)[C@H](C)C3)c(Nc3cc(C)n(C)n3)n2)cc(C2CC2)c1F` [compound 12, (R)-N2-(4-cyclopropyl-5-fluoro-6-methylpyridin-2-yl)-N4-(1,5-dimethyl-1H-pyrazol-3-yl)-5-(3,4-dimethylpiperazin-1-yl)pyrimidine-2,4-diamine], the CL/F ([3]; SCID, mouse, whole blood, oral, parent, Fixed) was 650 mL/min/kg, the “Blood Cmin (minimum parasiticidal concentration, MPC)” value ([3]; at 40 mg kg^−1) was 40 nM and the Ka ([3]; parent, Fixed) was 1 h⁻¹. For the same compound, the Ke0 ([3]; parent, Fixed) was 0.06 h⁻¹, the Vc/F ([3]; parent, Fixed) was 462 L/kg and the fraction unbound ([4]; Plasma protein binding (% free)) was 0.0055. For the same compound, the fraction unbound ([4]; Plasma protein binding, Plasma fu, fraction unbound) was 0.005, the “A—plasma Cmax free” value ([5]; 75 mg kg^−1 per day oral) was 110 nM and the “Safety margin (A/B)-free Cmax” value ([5]; 75 mg kg^−1 per day oral) was 12.6. The “Summary of clinical signs and effects” value ([5]; 75 mg kg^−1 per day oral) was “NOEL”, the “A—plasma Cmax free” value ([5]; 150 mg kg^−1 per day oral) was 130 nM and the “Safety margin (A/B)-free Cmax” value ([5]; 150 mg kg^−1 per day oral) was 15. For the same compound, the “Summary of clinical signs and effects” value ([5]; 150 mg kg^−1 per day oral) was “NOEL”, the “clinical pathology and histopathology findings” value ([5]; 75 or 150 mg kg^−1 oral, three days) was “no findings considered related to treatment” and the IC50 [6] was 6.5 nM. For the same compound, the IC50 [7] was 3.5 nM, the IC50 [8] was 70.1 nM and the “predicted reduction in the total parasite load” value ([9]; 260 mg, two life cycles (96 h)) was 3 to 4 log. The “predicted reduction in parasitemia” value ([9]; single dose of 260 mg, 4–6 days) was greater than 3 log, the “predicted reduction in the parasite load” value ([9]; single dose ~500 mg) was greater than 8 log and the “Plasma protein binding (% free)” value ([10]; Guinea pig) was 5.5 % free. It also gave a fraction unbound ([10]; guinea pig, plasma) of 0.055.
